# From patent US11472791B2 (Incyte Corporation, priority 2019, dated 2022)
# pIC50: −log10 of the molar value.
# Target: CDK2/Cyclin E1 (Homo sapiens (Human), UniProt P24941)
# Assay: CDK2/Cyclin E1 HTRF enzyme activity assay
# Type: biochemical
# Conditions: 1 mM ATP
# Experimental: Assays are conducted in white 384-well polystyrene plates in a final reaction volume of 8 μL. […] HTRF signals are read after 1 hour at room temperature on a PHERAstar FS plate reader (BMG Labtech). Data is analyzed with IDBS XLFit and GraphPad Prism 5.0 software using a three or four parameter dose response curve to determine IC50 for each compound.
row,pIC50,Structure (SMILES)
1,> 7.30,"Cc1cc(CN2CCN(C)[C@@H](CO)C2)ccc1-n1cc(-c2nc(NC3CCN(S(=O)(=O)c4cn(C)cn4)CC3)ncc2C(F)(F)F)cn1 [Example 229, (R)-(1-Methyl-4-(3-methyl-4-(4-(2-((1-((1-methyl-1H-imidazol-4-yl)sulfonyl)piperidin-4-yl)amino)-5-(trifluoromethyl)pyrimidin-4-yl)-1H-pyrazol-1-yl)benzyl)piperazin-2-yl)methanol]"
2,> 7.30,"CC(C)(O)Cn1cc(-c2nc(NC3CCN(S(=O)(=O)CCN4CCOCC4)CC3)ncc2C(F)(F)F)cn1 [Example 84, 2-Methyl-1-(4-(2-((1-((2-morpholinoethyl)sulfonyl)piperidin-4-yl)amino)-5-(trifluoromethyl)pyrimidin-4-yl)-1H-pyrazol-1-yl)propan-2-ol]"
3,> 7.30,"CS(=O)(=O)N1CCC(Nc2ncc(C(F)(F)F)c(-c3cnn(-c4cc(N)ncc4C(F)(F)F)c3)n2)CC1 [Example 37, 4-(1-(2-Amino-5-(trifluoromethyl)pyridin-4-yl)-1H-pyrazol-4-yl)-N-(1-(methylsulfonyl)piperidin-4-yl)-5-(trifluoromethyl)pyrimidin-2-amine]"
4,> 7.30,"CC(C)(O)Cn1cc(-c2nc(NC3CCN(S(=O)(=O)CCCN4CCOCC4)CC3)ncc2C(F)(F)F)cn1 [Example 63, 2-Methyl-1-(4-(2-((1-((3-morpholinopropyl)sulfonyl)piperidin-4-yl)amino)-5-(trifluoromethyl)pyrimidin-4-yl)-1H-pyrazol-1-yl)propan-2-ol]"
5,> 7.30,"CS(=O)(=O)N1CCC(Nc2ncc(C#N)c(-c3cnn(-c4ccc(CN[C@H]5CCC[C@@H]5O)cc4Cl)c3)n2)CC1 [Example 187, 4-(1-(2-Chloro-4-((((1S,2S)-2-hydroxycyclopentyl)amino)methyl)phenyl)-1H-pyrazol-4-yl)-2-((1-(methylsulfonyl)piperidin-4-yl)amino)pyrimidine-5-carbonitrile]"
6,> 7.30,"CCN(CC)CCCCS(=O)(=O)N1CCC(Nc2ncc(C(F)(F)F)c(-c3cnn(CC(C)(C)O)c3)n2)CC1 [Example 79, 1-(4-(2-((1-((4-(Diethylamino)butyl)sulfonyl)piperidin-4-yl)amino)-5-(trifluoromethyl)pyrimidin-4-yl)-1H-pyrazol-1-yl)-2-methylpropan-2-ol]"
7,> 7.30,"CN(C)CCCCS(=O)(=O)N1CCC(Nc2ncc(C(F)(F)F)c(-c3cnn(CC(C)(C)O)c3)n2)CC1 [Example 78, 1-(4-(2-((1-((4-(Dimethylamino)butyl)sulfonyl)piperidin-4-yl)amino)-5-(trifluoromethyl)pyrimidin-4-yl)-1H-pyrazol-1-yl)-2-methylpropan-2-ol]"
8,> 7.30,"CC(C)(O)Cn1cc(-c2nc(N[C@H]3CCN(S(=O)(=O)CCCN4CCC(O)CC4)C[C@H]3F)ncc2C(F)(F)F)cn1 [Example 208, 1-(3-(((3R,4S)-3-Fluoro-4-((4-(1-(2-hydroxy-2-methylpropyl)-1H-pyrazol-4-yl)-5-(trifluoromethyl)pyrimidin-2-yl)amino)piperidin-1-yl)sulfonyl)propyl)piperidin-4-ol]"
9,> 7.30,"CS(=O)(=O)N1CCC(Nc2ncc(C#N)c(-c3cnn(-c4ccc(CN[C@H]5C[C@](C)(O)C5)cc4Cl)c3)n2)CC1 [Example 191, 4-(1-(2-Chloro-4-((((1r,3r)-3-hydroxy-3-methylcyclobutyl)amino)methyl)phenyl)-1H-pyrazol-4-yl)-2-((1-(methylsulfonyl)piperidin-4-yl)amino)pyrimidine-5-carbonitrile]"
10,> 7.30,"N#Cc1cccc(S(=O)(=O)N2CCC(Nc3ncc(C(F)(F)F)c(-c4cnn(C5CCOCC5)c4)n3)CC2)c1 [Example 7, 3-((4-((4-(1-(Tetrahydro-2H-pyran-4-yl)-1H-pyrazol-4-yl)-5-(trifluoromethyl)pyrimidin-2-yl)amino)piperidin-1-yl)sulfonyl)benzo nitrile]"
11,> 7.30,"CC(C)(O)Cn1cc(-c2nc(NC3CCN(S(=O)(=O)c4ccccn4)CC3)ncc2C#N)cn1 [Example 55, 4-(1-(2-Hydroxy-2-methylpropyl)-1H-pyrazol-4-yl)-2-((1-(pyridin-2-ylsulfonyl)piperidin-4-yl)amino)pyrimidine-5-carbonitrile]"
12,> 7.30,"CN(C)C1CCC(S(=O)(=O)N2CCC(Nc3ncc(C(F)(F)F)c(-c4cnn(CC(C)(C)O)c4)n3)CC2)CC1 (single isomer, unassigned) [88 (peak 1), 1-(4-(2-((1-((4-(Dimethylamino)cyclohexyl)sulfonyl)piperidin-4-yl)amino)-5-(trifluoromethyl)pyrimidin-4-yl)-1H-pyrazol-1-yl)-2-methylpropan-2-ol]"
13,> 7.30,"C[C@]1(O)C[C@@H](NCc2ccc(-n3cc(-c4nc(NC5CCN(S(=O)(=O)C6CC6)CC5)ncc4C#N)cn3)c(Cl)c2)C1 [Example 285, 4-(1-(2-Chloro-4-((((1s,3s)-3-hydroxy-3-methylcyclobutyl)amino)methyl)phenyl)-1H-pyrazol-4-yl)-2-((1-(cyclopropylsulfonyl)piperidin-4-yl)amino)pyrimidine-5-carbonitrile]"
14,> 7.30,"CS(=O)(=O)N1CCC(Nc2ncc(C#N)c(-c3cnn(-c4ccc(CNC5CCN(S(C)(=O)=O)C5)cc4Cl)c3)n2)CC1 (racemic) [Example 198, (±)-4-(1-(2-Chloro-4-(((1-(methylsulfonyl)pyrrolidin-3-yl)amino)methyl)phenyl)-1H-pyrazol-4-yl)-2-((1-(methylsulfonyl)piperidin-4-yl)amino)pyrimidine-5-carbonitrile]"
15,> 7.30,"CO[C@@H]1CCN(CCCS(=O)(=O)N2CC[C@H](Nc3ncc(C(F)(F)F)c(-c4cnn(CC(C)(C)O)c4)n3)[C@H](F)C2)C1 [Example 206, 1-(4-(2-(((3R,4S)-3-Fluoro-1-((3-((R)-3-methoxypyrrolidin-1-yl)propyl)sulfonyl)piperidin-4-yl)amino)-5-(trifluoromethyl)pyrimidin-4-yl)-1H-pyrazol-1-yl)-2-methylpropan-2-ol]"
16,> 7.30,"CS(=O)(=O)N1CCC(Nc2ncc(C#N)c(-c3cnn(-c4ccc(CN[C@H]5CCCOC5)cc4Cl)c3)n2)CC1 [Example 196, (S)-4-(1-(2-Chloro-4-(((tetrahydro-2H-pyran-3-yl)amino)methyl)phenyl)-1H-pyrazol-4-yl)-2-((1-(methylsulfonyl)piperidin-4-yl)amino)pyrimidine-5-carbonitrile]"
17,> 7.30,"CNCc1ccc(-n2cc(-c3nc(NC4CCN(S(=O)(=O)c5cn(C)cn5)CC4)ncc3C(F)(F)F)cn2)c(C)n1 [Example 268, N-(1-((1-Methyl-1H-imidazol-4-yl)sulfonyl)piperidin-4-yl)-4-(1-(2-methyl-6-((methylamino)methyl)pyridin-3-yl)-1H-pyrazol-4-yl)-5-(trifluoromethyl)pyrimidin-2-amine]"
18,> 7.30,"CNCc1ccc(-n2cc(-c3nc(N[C@H]4CCN(S(=O)(=O)C5CC5)C[C@H]4F)ncc3C#N)cn2)c(Cl)c1 [Example 120, 4-(1-(2-Chloro-4-((methylamino)methyl)phenyl)-1H-pyrazol-4-yl)-2-(((3R,4S)-1-(cyclopropylsulfonyl)-3-fluoropiperidin-4-yl)amino)pyrimidine-5-carbonitrile]"
